# Test results as given in US20230330254A1 (Regeneron Pharmaceuticals, Inc., priority 2022, published 2023).
# pEC50: −log10 of the molar value. *1 amine or outer side, *2 acyl side, *3 side chain or, on linkers, in order; H or OH if unused. Where a SMILES comes first, the peptide text is derived from it. Side-chain parts run from the residue outwards. [ ]: non-standard residue; d: D form. The star is where a group is joined. PEG24 = NCCOCCOCCOCCOCCOCCOCCOCCOCCOCCOCCOCCOCCOCCOCCOCCOCCOCCOCCOCCOCCOCCOCCOCCOCCC(=O)O; Bip(2'-Et-4'-O(CH2)4NH2) = CCc1cc(OCCCCN[*:3])ccc1-c1ccc(C[C@H](N[*:1])C(=O)[*:2])cc1; Bip(2'-Et,4'-O(CH2)4NH2) = CCc1cc(OCCCCN)ccc1-c1ccc(C[C@H](N)C(=O)O)cc1; Malonyl(2,2-Me2,histaminyl) = CC(C)(C(=O)NCCc1cnc[nH]1)C(=O)*; Nva(5-(3,5-Me2Ph)) = Cc1cc(C)cc(CCC[C@H](N)C(=O)O)c1; Ala(1H-tetrazol-5-yl) = N[C@@H](Cc1nnn[nH]1)C(=O)O; αMePhe(2-F) = C[C@](N)(Cc1ccccc1F)C(=O)O; DBCO = C1#Cc2ccccc2N(*)Cc2ccccc21; Suc = O=C(CCC(=O)[*:2])[*:1]; X3 = CC(C)(C(=O)*)c1ccn[nH]1; X2 = CC(C)(C(N)=O)C(=O)*
# Assays:
# [1] = Liver microsome stability; assay type: in vitro ADME, human; conditions: human, microsomes, Table 7
# Method: To assess the in vitro ADME properties of the LP, microsomal stability assay was performed to determine intrinsic clearance, and plasma protein binding assay was performed to understand the distribution potential.
# [2] = Plasma protein binding (equilibrium dialysis); assay type: in vitro ADME, human; conditions: Human Plasma; 4 hours dialysis
# Method: The pH value of the resulting plasma was checked
# (<http://www.htdialysis.com/>).
# DMSO working solutions were prepared at 400 μM. […] These samples were transferred into new 96-well plates.
# [3] = Plasma stability of payloads and linker-payloads, human plasma; assay type: in vitro ADME; conditions: 2 μM, 37° C., read-out: Human plasma stability assay T½ (converted)
# Method in brief: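 Pooled plasma, pH adjusted to 7.4±0.1 where needed, spiked to 2 μM compound (duplicate) and incubated at 37 °C. At each time point, protein was precipitated with ACN/MeOH stop solution containing internal standards; remaining compound quantified in supernatant by LC-MS/MS.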
# human GLP1R [4] = biological target: T1, human GLP1R (Homo sapiens, UniProt P43220); test: Human GLP1R cAMP accumulation assay; assay type: cell-based; parameters: HEK293 cells over-expressing full length human GLP-1R were utilized; expressed in transfected cells; host or cells: HEK293 (HEK293/hGLP1R)
# T1 sequence (P43220 24-463): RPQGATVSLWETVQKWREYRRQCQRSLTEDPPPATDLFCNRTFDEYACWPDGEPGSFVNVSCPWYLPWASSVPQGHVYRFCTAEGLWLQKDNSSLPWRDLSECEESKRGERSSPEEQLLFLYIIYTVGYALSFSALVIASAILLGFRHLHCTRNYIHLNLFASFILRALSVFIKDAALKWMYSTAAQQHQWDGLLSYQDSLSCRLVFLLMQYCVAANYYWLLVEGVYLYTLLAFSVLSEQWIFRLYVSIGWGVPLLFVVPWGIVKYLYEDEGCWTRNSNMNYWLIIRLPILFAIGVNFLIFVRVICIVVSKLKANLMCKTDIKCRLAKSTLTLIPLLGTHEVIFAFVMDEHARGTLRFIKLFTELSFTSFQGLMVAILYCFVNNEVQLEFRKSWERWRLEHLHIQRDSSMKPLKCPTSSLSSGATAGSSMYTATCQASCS
# Method in brief: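 cAMP accumulation measured after 30 min at 23° C, with 500 μM IBMX in HEPES-buffered HBSS plus 0.1% BSA, in HEK293 cells expressing full-length hGLP-1R. Levels read by D2-cAMP/antibody immunoassay via standard curve, scaled between low and high controls. EC50 fitted four-parameter over a 10-point curve.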
# human GLP1R [5] = biological target: T1, human GLP1R; test: Luciferase reporter assay, HEK293/CRE-Luc/hGLP1R cells (Example 11); assay type: cell-based; parameters: engineered to express full-length human GLP1R, cynomolgus GLP1R; expressed in transfected cells; host or cells: HEK293/CRE-Luc; conditions: Table 11; Experiment A
# [6] = Plasma stability of payloads (t½)
# HEK293/CRE-Luc cells [7] = test: Luciferase reporter assay, HEK293/CRE-Luc cells without GLP1R (Example 17); assay type: cell-based, human; conditions: HEK293/CRE-Luc cells without hGLP1R, payloads and linker-payloads; for pEC50: read-out: EC50
# Method in brief: (§1)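 HEK293 cells carrying a CRE-driven firefly luciferase reporter were exposed to 3-fold serial dilutions of payloads or linker-payloads (12 points, 0.2% DMSO final) for 4–6 h, then luminescence was read. EC50 came from a four-parameter logistic fit; S/N is top RLU over untreated wells, and relative potency and S/N are referenced to M2361.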
# human GLP1R [8] = biological target: T1, human GLP1R; test: Luciferase reporter assay, HEK293/CRE-Luc/hGLP1R (Example 17); assay type: cell-based; parameters: engineered to express full-length human GLP1R, cynomolgus GLP1R; expressed in transfected cells; host or cells: HEK293/CRE-Luc; conditions: HEK293/CRE-Luc/hGLP1R; for S/N: highest RLU / RLU of untreated wells; for pEC50: payloads and linker-payloads, experiments A-E, M2361 repeated in each, read-out: EC50; for Relative Potency (% M2361 EC50) / Relative Signal:Noise (% M2361): relative to M2361 of the same experiment
# Method in brief: as §1
# HEK293/CRE-Luc cells [9] = test: Luciferase reporter assay, HEK293/CRE-Luc cells without hGLP1R (Example 11); assay type: cell-based, human; conditions: Table 11; Experiment A; no hGLP1R expression
# Method in brief: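 Counter-screen in HEK293 cells carrying CRE-driven firefly luciferase without hGLP1R; 3-fold serial dilutions of payloads or linker-payloads at 0.2% final DMSO, 4–6 h.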
# human GLP1R [10] = biological target: T1, human GLP1R; test: CRE-luciferase reporter assay, HEK293/Myc-hGLP1R/Cre-Luc (Example 9); assay type: cell-based; parameters: engineered to express full-length human GLP1R, cynomolgus GLP1R; expressed in transfected cells; host or cells: HEK293/CRE-Luc; conditions: Table 9; 5.5 h; read-out: HEK293/Myc-hGLP1R/Cre-Luc EC50
# Method: To test the activity of GLP1R agonist payloads and GLP1R agonist linker-payloads (LPs) in vitro, a cell-based cAMP responsive luciferase reporter assay was developed.
# Cells were incubated overnight at 37° C. in 5% CO2. […] Plates were incubated for 5.5 h at 37° C. in 5% CO2. For end-point measurement, 100 μL/well of One-Glo reagent (Promega, #E6051) was added and plates were kept at room temperature for 5-10 minutes. Luciferase activity was measured on Envision Multilabel Plate Reader (Perkin Elmer) in Luminescent mode. The relative light units (RLU) values were obtained and the results were analyzed using nonlinear regression with GraphPad Prism software (GraphPad).
# [11] = Plasma stability of payloads and linker-payloads, mouse plasma; assay type: in vitro ADME; conditions: for half-life at 2 µM: mouse, pooled plasma
# Method: The plasma stability of payloads and linker payloads of the disclosure were measured. For the assay, pooled frozen plasma (human, mouse or monkey) was thawed in cold water or a 37° C. water bath prior to experiment. Plasma was centrifuged at 4000 rpm for 5 min if any clots were observed, they were subsequently removed. If required, the pH was adjusted to 7.4±0.1. For the preparation of compounds and positive controls, a 1 mM intermediate solution was prepared by diluting 10 μL of their stock solution with 90 μL DMSO; a 1 mM intermediate solution of the positive control (Propantheline) was prepared by diluting 10 μL of its stock solution with 90 μL ultrapure water. Subsequently, 100 μM dosing solution for each compound was prepared by diluting 20 μL of the intermediate solution (1 mM) with 180 μL 45% MeOH/H2O. 98 μL of plasma was spiked with 2 μL of dosing solution (100 μM) to achieve the final concentration of 2 μM in duplicate. Samples were then incubated at 37° C. in a water bath. […] At each time point, 400 μL of stop solution (200 ng/mL tolbutamide plus 200 ng/mL labetalol in 50% ACN/MeOH) was added to precipitate protein and mixed thoroughly. Sample plates were then centrifuged at 4,000 rpm for 10 min. An aliquot of supernatant (50 μL) was transferred from each well and mixed with 100 μL ultrapure water. The samples were then shaken at 800 rpm for approximately 10 min before submitting for LC-MS/MS analysis.
# [12] = plasma, pH 7.4, tested time A (1 day per footnote)
# [13] = HEK293/hGLP1R cells, Table 4, read-out: cAMP EC50
Compound,"half-life at 2 µM [3, 12]",pEC50 (human GLP1R [4]; [13]),pEC50 (human GLP1R [5]),HEK293/CRE-LUC/hGLP1R Relative Potency (% P8 EC50) (human GLP1R [5]),HEK293/CRE-LUC/hGLP1R S/N (human GLP1R [5]),Plasma stability t½ [6],S/N (HEK293/CRE-Luc cells [7]),pEC50 (HEK293/CRE-Luc cells [7]),S/N (human GLP1R [8]),pEC50 (human GLP1R [8]),Relative Potency (% M2361 EC50) (human GLP1R [8]),Relative Signal:Noise (% M2361) (human GLP1R [8]),pEC50 (HEK293/CRE-Luc cells [9]),HEK293/CRE-LUC S/N (HEK293/CRE-Luc cells [9]),further results
C[C@]12CC[C@H]3[C@@H](CCC4=CC(=O)CC[C@@]43C)[C@@H]1CC[C@@H]2O [Testosterone],,,,,,,,,,,,,,,CLint scaled ([1]; read-out: CLint(liver)): 77.2 mL/min/kg; microsomal CLint ([1]; read-out: CLint(mic)): 85.7 µL/min/mg
CC(=O)CC(c1ccccc1)c1c(O)c2ccccc2oc1=O (stereo not shown) [Warfarin],,,,,,,,,,,,,,,"recovery at 4 h, 2 µM [2]: 98.3%"
"CCc1cc(OCCCCN)ccc1-c1ccc(C[C@H](NC(=O)[C@H](CC(=O)O)NC(=O)[C@H](CO)NC(=O)[C@@H](NC(=O)[C@](C)(Cc2ccccc2F)NC(=O)[C@@H](NC(=O)CNC(=O)[C@H](Cc2nn[nH]n2)NC(=O)[C@H](C)NC(=O)[C@H](Cc2c[nH]cn2)NC(=O)[C@@H](N)CCC(N)=O)[C@@H](C)O)[C@@H](C)O)C(=O)N[C@@H](CCCc2cc(C)cc(C)c2)C(N)=O)cc1 [P13] (H-QHA[Ala(1H-tetrazol-5-yl)]GT[αMePhe(2-F)]TSD[Bip(2'-Et,4'-O(CH2)4NH2)][Nva(5-(3,5-Me2Ph))]-NH2)",16.9 h,9.04,9.45,1.5%,69.5,16.9 h,1.2,< 6.70,69.5,9.45,1.5%,105.6%,< 6.70,1.2,
"CCc1cc(OCCCCNC(=O)CCOCCOCCOCCOCCOCCOCCOCCOCCOCCOCCOCCOCCOCCOCCOCCOCCOCCOCCOCCOCCOCCOCCOCCOCCNC(=O)CCC(=O)N2Cc3ccccc3C#Cc3ccccc32)ccc1-c1ccc(C[C@H](NC(=O)[C@H](CC(=O)O)NC(=O)[C@H](CO)NC(=O)[C@@H](NC(=O)[C@](C)(Cc2ccccc2F)NC(=O)[C@@H](NC(=O)CNC(=O)[C@H](Cc2nn[nH]n2)NC(=O)C(C)(C)C(=O)NCCc2cnc[nH]2)[C@@H](C)O)[C@@H](C)O)C(=O)N[C@@H](CCCc2cc(C)cc(C)c2)C(N)=O)cc1 [LP4, DIBAC-suc-PEG24-P9] ({Malonyl(2,2-Me2,histaminyl)}-[Ala(1H-tetrazol-5-yl)]GT[αMePhe(2-F)]TSD[Bip(2'-Et-4'-O(CH2)4NH2)]([PEG24-Suc-DBCO])[Nva(5-(3,5-Me2Ph))]-NH2)",,,9.90,4.2%,63.8,,1.7,< 6.70,63.8,,4.2%,97.1%,< 6.70,1.7,pEC50 (human GLP1R [10]): 10.15
"CCc1cc(OC)ccc1-c1ccc(C[C@H](NC(=O)[C@H](CC(=O)O)NC(=O)[C@H](CO)NC(=O)[C@@H](NC(=O)[C@](C)(Cc2ccccc2F)NC(=O)[C@@H](NC(=O)CNC(=O)[C@H](Cc2nn[nH]n2)NC(=O)C(C)(C)C(=O)NCCc2cnc[nH]2)[C@@H](C)O)[C@@H](C)O)C(=O)N[C@@H](CCCc2ccc(OCCCCNC(=O)CCOCCOCCOCCOCCOCCOCCOCCOCCOCCOCCOCCOCCOCCOCCOCCOCCOCCOCCOCCOCCOCCOCCOCCOCCNC(=O)CCC(=O)N3Cc4ccccc4-c4c(nnn4CC4OC5OC6C(CO)OC(OC7C(CO)OC(OC8C(CO)OC(OC9C(CO)OC(OC%10C(CO)OC(OC4C(O)C5O)C(O)C%10O)C(O)C9O)C(O)C8O)C(O)C7O)C(O)C6O)-c4ccccc43)cc2)C(N)=O)cc1 (stereo partly shown) [LP23, cyclo-dex-trin-triazole-DIBAC-suc-PEG24-P24]",,,,,,,,,,,,,,,"plasma stability T½ ([11]; Mouse, assay time 2 hr, Table 5B): >4 h; half-life at 2 µM ([11]; pH 7.4, Mouse, assay time 2 hr, Table 5B, read-out: plasma stability T½): > 4 h; half-life at 2 µM ([11]; pH 7.4, Table 5A, mouse plasma, tested time B (2 hrs), read-out: plasma stability T½ (hr), mouse): > 4.8 h; half-life at 2 µM ([3]; pooled plasma, pH 7.4, tested time B (2 hrs per footnote)): > 4.8 h; pEC50 (human GLP1R [4]): 9.27"
"CCc1cc(OCCCCN)ccc1-c1ccc(C[C@H](NC(=O)[C@H](CC(=O)O)NC(=O)[C@H](CO)NC(=O)[C@@H](NC(=O)[C@](C)(Cc2ccccc2F)NC(=O)[C@@H](NC(=O)CNC(=O)[C@H](Cc2nn[nH]n2)NC(=O)C(C)(C)C(N)=O)[C@@H](C)O)[C@@H](C)O)C(=O)N[C@@H](CCCc2cc(C)cc(C)c2)C(N)=O)cc1 [P4] (X2-[Ala(1H-tetrazol-5-yl)]GT[αMePhe(2-F)]TSD[Bip(2'-Et,4'-O(CH2)4NH2)][Nva(5-(3,5-Me2Ph))]-NH2)",> 57.8 h,9.81,10.08,6.3%,66.9,>57.8 h,1.6,< 6.70,66.9,10.08,6.3%,101.8%,< 6.70,1.6,
"CCc1cc(OCCCCN)ccc1-c1ccc(C[C@H](NC(=O)[C@H](CC(=O)O)NC(=O)[C@H](CO)NC(=O)[C@@H](NC(=O)[C@](C)(Cc2ccccc2F)NC(=O)[C@@H](NC(=O)CNC(=O)[C@H](Cc2nn[nH]n2)NC(=O)C(C)(C)c2ccn[nH]2)[C@@H](C)O)[C@@H](C)O)C(=O)N[C@@H](CCCc2cc(C)cc(C)c2)C(N)=O)cc1 [P6] (X3-[Ala(1H-tetrazol-5-yl)]GT[αMePhe(2-F)]TSD[Bip(2'-Et,4'-O(CH2)4NH2)][Nva(5-(3,5-Me2Ph))]-NH2)",> 57.8 h,9.07,9.22,0.9%,60.7,>57.8 h,1.0,< 6.70,60.7,9.22,0.9%,92.3%,< 6.70,1.0,
